Source: paper PMC4303209, “A novel phosphatidylinositol 3-kinase (PI3K) inhibitor directs a potent FOXO-dependent, p53-independent cell cycle arrest phenotype characterized by the differential induction of a subset of FOXO-regulated genes” (Breast Cancer Research : BCR, 2014)

Test system: MCF-7 breast cancer cells
Assay: Microarray gene expression analysis (Agilent whole human genome 4 x 44K; compound vs DMSO, LIMMA log2 fold change)
Assay type: cell-based
Settings: cell cycle genes

Oc1cccc(-c2nc(N3CCOCC3)c3oc4ncccc4c3n2)c1 [PI-103]
STAT5A log2FC (Gene 6776): 0.39
STAT5B log2FC (Gene 6777): 0.11
AURKA log2FC (Gene 6790): -0.02
STK10 log2FC (Gene 6793): -0.32
AURKC log2FC (Gene 6795): 0.0218
SUV39H1 log2FC (Gene 6839): -0.50
TACC1 log2FC (Gene 6867): 0.0342
ADAM17 log2FC (Gene 6868): 0.53
TAF1 log2FC (Gene 6872): 0.15
TAL1 log2FC (Gene 6886): -0.57
TBX3 log2FC (Gene 6926): -0.69
TCF3 log2FC (Gene 6929): 0.0643
DYNLT3 log2FC (Gene 6990): -0.24
DYNLT1 log2FC (Gene 6993): -0.03
TERF1 log2FC (Gene 7013): 0.38
TERF2 log2FC (Gene 7014): -0.16
TFAP4 log2FC (Gene 7023): 0.39
NR2F2 log2FC (Gene 7026): 0.34
TFDP1 log2FC (Gene 7027): -0.56
TFDP2 log2FC (Gene 7029): 0.41
TGFB1 log2FC (Gene 7040): -0.44
THBS1 log2FC (Gene 7057): -0.91
TNF log2FC (Gene 7124): -1.87
TNFAIP3 log2FC (Gene 7128): -0.85
TOP2A log2FC (Gene 7153): 0.91
TOP2B log2FC (Gene 7155): 0.99
TOP3A log2FC (Gene 7156): -0.05
TP53 log2FC (Gene 7157): 0.0569
TP53BP2 log2FC (Gene 7159): 0.35
TPR log2FC (Gene 7175): 0.74
TSC1 log2FC (Gene 7248): 0.42
TSC2 log2FC (Gene 7249): -0.11
TSG101 log2FC (Gene 7251): 0.39
TTK log2FC (Gene 7272): 1.59
TUBG1 log2FC (Gene 7283): -0.33
UBA52 log2FC (Gene 7311): 0.31
UBB log2FC (Gene 7314): 0.0362
UBC log2FC (Gene 7316): 0.33
UBE2B log2FC (Gene 7320): 0.65
UBE2D1 log2FC (Gene 7321): 0.50
UBE2E1 log2FC (Gene 7324): 0.0118
UBE2I log2FC (Gene 7329): -0.30
WEE1 log2FC (Gene 7465): 0.0429
WNT5A log2FC (Gene 7474): 0.13
WNT10B log2FC (Gene 7480): -0.49
WNT9A log2FC (Gene 7483): 0.04
XPC log2FC (Gene 7508): 0.59
XRCC2 log2FC (Gene 7516): -0.60
YWHAG log2FC (Gene 7532): -0.88
ZNF16 log2FC (Gene 7564): 0.34
ZBTB17 log2FC (Gene 7709): 0.30
PTP4A1 log2FC (Gene 7803): -0.61
EVI5 log2FC (Gene 7813): 0.44
ALMS1 log2FC (Gene 7840): 0.65
NR4A3 log2FC (Gene 8013): 0.34
NUP214 log2FC (Gene 8021): -0.41
FOSL1 log2FC (Gene 8061): -2.53
CUL5 log2FC (Gene 8065): -0.23
YEATS4 log2FC (Gene 8089): 1.06
HMGA2 log2FC (Gene 8091): -1.51
CHAF1B log2FC (Gene 8208): -0.0543
CLTCL1 log2FC (Gene 8218): -0.03
USP9X log2FC (Gene 8239): 0.62
SMC1A log2FC (Gene 8243): 0.14
CDC7 log2FC (Gene 8317): 0.32
RAD54L log2FC (Gene 8438): -0.18
CUL4B log2FC (Gene 8450): 0.75
CUL4A log2FC (Gene 8451): 0.38
CUL1 log2FC (Gene 8454): 0.21
KLF11 log2FC (Gene 8462): 1.20
OFD1 log2FC (Gene 8481): 0.89
PKP4 log2FC (Gene 8502): 0.15
GAS7 log2FC (Gene 8522): -0.00153
DGKZ log2FC (Gene 8525): -0.37
CAMK1 log2FC (Gene 8536): -0.0329
CDC14B log2FC (Gene 8555): 0.10
CDK10 log2FC (Gene 8558): 0.17
MADD log2FC (Gene 8567): 0.75
DYNLL1 log2FC (Gene 8655): -1.05
TNKS log2FC (Gene 8658): 0.82
BECN1 log2FC (Gene 8678): 0.35
CDC23 log2FC (Gene 8697): 0.30
CRADD log2FC (Gene 8738): -0.08
CCNK log2FC (Gene 8812): -0.50
BANF1 log2FC (Gene 8815): -0.32
CDK5R1 log2FC (Gene 8851): -0.33
IER3 log2FC (Gene 8870): -2.26
SPHK1 log2FC (Gene 8877): -0.42
CDC16 log2FC (Gene 8881): 0.66
CCNA1 log2FC (Gene 8900): 0.11
TIMELESS log2FC (Gene 8914): 0.20
PHOX2B log2FC (Gene 8929): -0.0327
MBD4 log2FC (Gene 8930): 0.29
BTRC log2FC (Gene 8945): 0.17
WASL log2FC (Gene 8976): 0.10
RNF8 log2FC (Gene 9025): -0.06
PRC1 log2FC (Gene 9055): 0.34
USP2 log2FC (Gene 9099): -0.07
USP8 log2FC (Gene 9101): 0.76
SMC3 log2FC (Gene 9126): 1.35
EXO1 log2FC (Gene 9156): -0.12
ARHGEF2 log2FC (Gene 9181): -0.51
ZW10 log2FC (Gene 9183): 0.27
BUB3 log2FC (Gene 9184): 0.44
NOLC1 log2FC (Gene 9221): -0.67
CCPG1 log2FC (Gene 9236): 1.09
MAPKAPK2 log2FC (Gene 9261): -0.19
PIWIL1 log2FC (Gene 9271): 0.0443
RECQL5 log2FC (Gene 9400): 0.48
ROCK2 log2FC (Gene 9475): 0.20
PSMF1 log2FC (Gene 9491): -0.34
VPS4B log2FC (Gene 9525): 0.64
CLOCK log2FC (Gene 9575): 0.03
MAD2L1BP log2FC (Gene 9587): -0.27
ARHGEF10 log2FC (Gene 9639): 0.19
MDC1 log2FC (Gene 9656): -0.21
CEP135 log2FC (Gene 9662): 0.43
KIAA0430 log2FC (Gene 9665): 0.91
CROCC log2FC (Gene 9696): -0.11
ESPL1 log2FC (Gene 9700): 0.72
CEP57 log2FC (Gene 9702): 1.20
UTP14C log2FC (Gene 9724): 0.24
KNTC1 log2FC (Gene 9735): 0.58
RASSF2 log2FC (Gene 9770): 0.56
CKAP5 log2FC (Gene 9793): 0.44
SFI1 log2FC (Gene 9814): 0.17
RB1CC1 log2FC (Gene 9821): 1.48
MELK log2FC (Gene 9833): 0.25
GINS1 log2FC (Gene 9837): -0.84
MAGI2 log2FC (Gene 9863): 0.33
TLK1 log2FC (Gene 9874): 0.44
POM121 log2FC (Gene 9883): -0.58
KLHL21 log2FC (Gene 9903): 0.49
DCLRE1A log2FC (Gene 9937): 0.44
USP3 log2FC (Gene 9960): 0.29
THOC1 log2FC (Gene 9984): 0.38
DMTF1 log2FC (Gene 9988): 0.44
CASP8AP2 log2FC (Gene 9994): 0.61
PDCD6IP log2FC (Gene 10015): 0.60
BCL2L11 log2FC (Gene 10018): 0.09
CHAF1A log2FC (Gene 10036): -0.38
PARP3 log2FC (Gene 10039): 0.48
TOM1L1 log2FC (Gene 10040): 0.60
SMC4 log2FC (Gene 10051): 0.76
ACTR2 log2FC (Gene 10097): -0.39
RAD50 log2FC (Gene 10111): 0.41
KIF20A log2FC (Gene 10112): 0.59
OPTN log2FC (Gene 10133): 0.73
AKAP9 log2FC (Gene 10142): 1.37
PSME3 log2FC (Gene 10197): -1.22
MPHOSPH9 log2FC (Gene 10198): 0.40
MPHOSPH6 log2FC (Gene 10200): -0.88
MAEA log2FC (Gene 10296): -0.11
PAK4 log2FC (Gene 10298): -0.42
NPM2 log2FC (Gene 10361): -0.11
HMG20B log2FC (Gene 10362): 0.52
CITED2 log2FC (Gene 10370): 2.31
